The target of one series is T1, DPP-IV (Homo sapiens, UniProt P27487).
T1 construct: an extract of the human colon carcinoma cell line Caco-2 is used as the DPP IV source; endogenous in cells; host or cells: Caco-2 (human colon carcinoma), differentiated to induce DPP-IV expression; Nonidet-P40 solubilised extract
As to the kind of experiment: DPP-IV assay with Caco-2 cell extract as DPP IV source, AFC substrate, fluorescence. The format is biochemical. The settings on record: extract of human colon carcinoma cell line Caco-2; substrate 100 μM; 60 minutes at ambient temperature; read-out: DPP IV inhibition IC50. The method, then:
The cell extract was obtained from cells solubilised in a buffer (10 mM Tris HCl, 0.15 M NaCl, 0.04 t.i.u. aprotinin, 0.5% Nonidet-P40, pH 8.0) by centrifugation at 35,000 g for 30 minutes at 4° C. (to remove cell debris).
The DPP-IV assay was carried out as follows:
50 μl of substrate solution (AFC; AFC is amido-4-trifluoromethylcoumarin), final concentration 100 μM, were placed in black microtitre plates. 20 μl of assay buffer (final concentrations 50 mM Tris HCl pH 7.8, 50 mM NaCl, 1% DMSO) was pipetted in. The reaction was started by the addition of 30 μl of solubilised Caco-2 protein (final concentration 0.14 μg of protein per well). The test substances under investigation were typically added prediluted to 20 μl, while the volume of assay buffer was then reduced accordingly. The reaction was carried out at ambient temperature, the incubation period was 60 minutes. […] Dummy values (corresponding to 0% activity) were obtained in mixtures with no Caco-2 protein (volume replaced by assay buffer), control values (corresponding to 100% activity) were obtained in mixtures without any added substance.

A further series has as its system rats. As to the kind of experiment: Tolerability: behavior of rats after oral administration. The format is in vivo. The settings on record: oral administration of 10 mg/kg.

The record followed here is patent US7470716B2, “Imidazoles and triazoles, their preparation, and their use as pharmaceutical compositions” (Boehringer Ingelheim International GmbH, priority 2004, dated 2008).

T1 sequence (P27487 whole entry): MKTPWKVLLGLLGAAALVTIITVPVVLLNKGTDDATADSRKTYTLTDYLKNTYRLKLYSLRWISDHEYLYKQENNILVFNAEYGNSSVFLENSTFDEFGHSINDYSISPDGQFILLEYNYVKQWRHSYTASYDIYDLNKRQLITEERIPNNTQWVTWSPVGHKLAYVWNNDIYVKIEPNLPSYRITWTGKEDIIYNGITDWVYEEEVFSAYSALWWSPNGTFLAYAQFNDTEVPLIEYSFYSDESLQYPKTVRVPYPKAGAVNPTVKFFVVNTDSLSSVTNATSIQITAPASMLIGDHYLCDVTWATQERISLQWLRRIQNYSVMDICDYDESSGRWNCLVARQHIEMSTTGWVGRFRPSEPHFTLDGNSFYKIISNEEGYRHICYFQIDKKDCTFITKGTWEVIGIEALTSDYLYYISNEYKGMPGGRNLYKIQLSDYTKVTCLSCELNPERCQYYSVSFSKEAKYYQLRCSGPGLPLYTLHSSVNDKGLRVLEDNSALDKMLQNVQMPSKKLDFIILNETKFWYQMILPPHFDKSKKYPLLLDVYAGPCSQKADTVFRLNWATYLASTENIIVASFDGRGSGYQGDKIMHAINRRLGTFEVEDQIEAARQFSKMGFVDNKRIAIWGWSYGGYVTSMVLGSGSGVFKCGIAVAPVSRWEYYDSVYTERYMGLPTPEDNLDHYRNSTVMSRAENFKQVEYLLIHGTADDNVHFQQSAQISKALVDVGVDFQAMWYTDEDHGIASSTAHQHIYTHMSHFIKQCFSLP

What is called IC50 is the concentration that inhibits the measured activity by half. `CC(C)=CCn1c(C(=O)NCc2cccc3ccccc23)nnc1N1CCNCC1` [Example 2, 3-(piperazin-1-yl)-4-(3-methyl-but-2-enyl)-5-(naphth-1-ylmethylaminocarbonyl)-4H-[1,2,4]triazole]: at DPP-IV, the IC50 is 367 nM.
On to `CC(C)=CCn1c(C(=O)NCc2cccc3ccccc23)nnc1N1CCCC(N)C1` (centres unmarked) [Example 3, 3-(3-amino-piperidin-1-yl)-4-(3-methyl-but-2-enyl)-5-(naphth-1-ylmethylaminocarbonyl)-4H-[1,2,4]triazole], for which, on DPP-IV, the IC50 turned out to be 101 nM.
For the compound `CC#CCn1c(C(=O)NCc2nc3ccccc3c3ccccc23)cnc1N1CCCC(N)C1` (centres unmarked) [1(2), 1-(but-2-ynyl)-2-(3-amino-piperidin-1-yl)-5-(phenanthridin-6-ylmethylaminocarbonyl)-1H-imidazole], at DPP-IV, the IC50 turned out to be 41 nM.
Still for that read-out and setting: then `NC1CCCN(c2nnc(C(=O)NCc3cccc4ccccc34)n2Cc2ccccc2Cl)C1` (centres unmarked) [Example 4, 3-(3-amino-piperidin-1-yl)-4-(2-chloro-benzyl)-5-(naphth-1-ylmethylaminocarbonyl)-4H-[1,2,4]triazole], with 382 nM; and `CC#CCn1c(C(=O)NCc2ccc3ncccc3c2)nnc1N1CCCC(N)C1` (centres unmarked) [4(2), 3-(3-amino-piperidin-1-yl)-4-(but-2-ynyl)-5-(quinolin-6-ylmethylaminocarbonyl)-4H-[1,2,4]triazole], with 36 nM; and `NC1CCCN(c2nnc(C(=O)NCc3cccc4ccccc34)n2Cc2ccccc2)C1` (centres unmarked) [3(1), 3-(3-amino-piperidin-1-yl)-4-benzyl-5-(naphth-1-ylmethylaminocarbonyl)-4H-[1,2,4]triazole], with 101 nM.
For `CC#CCn1c(C(=O)NCc2nc(C)cc3ccccc23)nnc1N1CCCC(N)C1` (centres unmarked) [Example 4(1), 3-(3-amino-piperidin-1-yl)-4-(but-2-ynyl)-5-(3-methyl-isoquinolin-1-ylmethylaminocarbonyl)-4H-[1,2,4]triazole], the “changes in the behavior of rats (tolerability)” value in the series with rats is listed as “no changes in the behavior of rats could be detected”.
With `CC(C)=CCn1c(C(=O)NCc2cccc3ccccc23)nnc1N1CCCNCC1` [2(2), 3-([1,4]diazepan-1-yl)-4-(3-methyl-but-2-enyl)-5-(naphth-1-ylmethylaminocarbonyl)-4H-[1,2,4]triazole], the IC50 at DPP-IV amounted to 386 nM.
